Laboratory results published in the NIST ThermoML archive (doi:10.1021/acs.jced.8b00554).
“And” between values parts separate entries of the source, which are not always exact repeats. Equal entries are not always repeated.

Experiment: xn = mol fraction of the nth substance listed
Settings: Liquid, Vibrating tube method

CCCCCCCCC [nonane] + CCCO
Settings | mass density
313.15 K, 18020 kPa, x2 = 0.4272 | 731.02 kg/m3
313.15 K, 19000 kPa, x2 = 0.2315 | 725.04 kg/m3
313.15 K, 19000 kPa, x2 = 0.3229 | 705.41 kg/m3
313.15 K, 19000 kPa, x2 = 0.7021 | 757.45 kg/m3
313.15 K, 19000 kPa, x2 = 0.8941 | 782.35 kg/m3
313.15 K, 19010 kPa, x2 = 0.1231 | 682.1 kg/m3 and 720.5 kg/m3
313.15 K, 19010 kPa, x2 = 0.2315 | 685.8 kg/m3
313.15 K, 19010 kPa, x2 = 0.4272 | 732.06 kg/m3
313.15 K, 19020 kPa, x2 = 0.3229 | 729.37 kg/m3
313.15 K, 19020 kPa, x2 = 0.4272 | 735.24 kg/m3
313.15 K, 20000 kPa, x2 = 0.1231 | 721.22 kg/m3
313.15 K, 20010 kPa, x2 = 0.1231 | 683.05 kg/m3
313.15 K, 20010 kPa, x2 = 0.2315 | 686.85 kg/m3
313.15 K, 20010 kPa, x2 = 0.4272 | 736 kg/m3
313.15 K, 20010 kPa, x2 = 0.7021 | 758.2 kg/m3
313.15 K, 20010 kPa, x2 = 0.8941 | 783.1 kg/m3
313.15 K, 20020 kPa, x2 = 0.2315 | 725.78 kg/m3
313.15 K, 20020 kPa, x2 = 0.3229 | 706.48 kg/m3 and 730.09 kg/m3
313.15 K, 20020 kPa, x2 = 0.4272 | 733.04 kg/m3
323.15 K, 100 kPa, x2 = 0.1231 | 696.08 kg/m3
323.15 K, 100 kPa, x2 = 0.2315 | 700.11 kg/m3
323.15 K, 100 kPa, x2 = 0.3229 | 704.16 kg/m3
323.15 K, 100 kPa, x2 = 0.4272 | 709.94 kg/m3
323.15 K, 100 kPa, x2 = 0.7021 | 732.13 kg/m3
323.15 K, 100 kPa, x2 = 0.8941 | 757.59 kg/m3
323.15 K, 1000 kPa, x2 = 0.7021 | 732.62 kg/m3
323.15 K, 1010 kPa, x2 = 0.1231 | 696.28 kg/m3
323.15 K, 1010 kPa, x2 = 0.2315 | 700.63 kg/m3
323.15 K, 1010 kPa, x2 = 0.3229 | 704.67 kg/m3
323.15 K, 1010 kPa, x2 = 0.4272 | 710.4 kg/m3
323.15 K, 1010 kPa, x2 = 0.8941 | 758.12 kg/m3
323.15 K, 2000 kPa, x2 = 0.1231 | 697.28 kg/m3
323.15 K, 2000 kPa, x2 = 0.8941 | 759.05 kg/m3
323.15 K, 2010 kPa, x2 = 0.2315 | 701.62 kg/m3
323.15 K, 2010 kPa, x2 = 0.3229 | 705.65 kg/m3
323.15 K, 2010 kPa, x2 = 0.4272 | 711.37 kg/m3
323.15 K, 2010 kPa, x2 = 0.7021 | 733.6 kg/m3
323.15 K, 3010 kPa, x2 = 0.2315 | 702.6 kg/m3
323.15 K, 3010 kPa, x2 = 0.3229 | 706.63 kg/m3
323.15 K, 3010 kPa, x2 = 0.4272 | 712.36 kg/m3
323.15 K, 3010 kPa, x2 = 0.8941 | 760 kg/m3
323.15 K, 3020 kPa, x2 = 0.1231 | 698.25 kg/m3
323.15 K, 3020 kPa, x2 = 0.7021 | 734.56 kg/m3
323.15 K, 4000 kPa, x2 = 0.2315 | 703.57 kg/m3
323.15 K, 4000 kPa, x2 = 0.4272 | 713.31 kg/m3
323.15 K, 4000 kPa, x2 = 0.8941 | 760.92 kg/m3
323.15 K, 4010 kPa, x2 = 0.1231 | 699.22 kg/m3
323.15 K, 4010 kPa, x2 = 0.3229 | 707.6 kg/m3
323.15 K, 4020 kPa, x2 = 0.7021 | 735.53 kg/m3
323.15 K, 5010 kPa, x2 = 0.1231 | 700.18 kg/m3
323.15 K, 5010 kPa, x2 = 0.2315 | 704.52 kg/m3
323.15 K, 5010 kPa, x2 = 0.4272 | 714.28 kg/m3
323.15 K, 5010 kPa, x2 = 0.7021 | 736.47 kg/m3
323.15 K, 5010 kPa, x2 = 0.8941 | 761.84 kg/m3
323.15 K, 5020 kPa, x2 = 0.3229 | 708.55 kg/m3
323.15 K, 6010 kPa, x2 = 0.1231 | 701.13 kg/m3
323.15 K, 6010 kPa, x2 = 0.2315 | 705.46 kg/m3
323.15 K, 6010 kPa, x2 = 0.3229 | 709.51 kg/m3
323.15 K, 6010 kPa, x2 = 0.4272 | 715.23 kg/m3
323.15 K, 6010 kPa, x2 = 0.7021 | 737.41 kg/m3
323.15 K, 6010 kPa, x2 = 0.8941 | 762.78 kg/m3
323.15 K, 7000 kPa, x2 = 0.8941 | 763.69 kg/m3
323.15 K, 7010 kPa, x2 = 0.3229 | 710.46 kg/m3
323.15 K, 7020 kPa, x2 = 0.1231 | 702.05 kg/m3
323.15 K, 7020 kPa, x2 = 0.2315 | 706.4 kg/m3
323.15 K, 7020 kPa, x2 = 0.4272 | 716.18 kg/m3
323.15 K, 7020 kPa, x2 = 0.7021 | 738.36 kg/m3
323.15 K, 8010 kPa, x2 = 0.3229 | 711.38 kg/m3
323.15 K, 8010 kPa, x2 = 0.4272 | 717.13 kg/m3
323.15 K, 8010 kPa, x2 = 0.7021 | 739.3 kg/m3
323.15 K, 8010 kPa, x2 = 0.8941 | 764.6 kg/m3
323.15 K, 8020 kPa, x2 = 0.1231 | 702.98 kg/m3
323.15 K, 8020 kPa, x2 = 0.2315 | 707.34 kg/m3
323.15 K, 9000 kPa, x2 = 0.2315 | 708.26 kg/m3
323.15 K, 9000 kPa, x2 = 0.7021 | 740.23 kg/m3
323.15 K, 9010 kPa, x2 = 0.1231 | 703.89 kg/m3
323.15 K, 9010 kPa, x2 = 0.4272 | 718.05 kg/m3
323.15 K, 9020 kPa, x2 = 0.3229 | 712.32 kg/m3
323.15 K, 9020 kPa, x2 = 0.8941 | 765.49 kg/m3
323.15 K, 10000 kPa, x2 = 0.1231 | 704.81 kg/m3
323.15 K, 10000 kPa, x2 = 0.8941 | 766.39 kg/m3
323.15 K, 10010 kPa, x2 = 0.3229 | 713.24 kg/m3
323.15 K, 10010 kPa, x2 = 0.4272 | 718.99 kg/m3
323.15 K, 10010 kPa, x2 = 0.7021 | 741.14 kg/m3
323.15 K, 10020 kPa, x2 = 0.2315 | 709.17 kg/m3
323.15 K, 11000 kPa, x2 = 0.3229 | 714.15 kg/m3
323.15 K, 11000 kPa, x2 = 0.8941 | 767.27 kg/m3
323.15 K, 11010 kPa, x2 = 0.1231 | 705.72 kg/m3
323.15 K, 11010 kPa, x2 = 0.2315 | 710.07 kg/m3
323.15 K, 11010 kPa, x2 = 0.4272 | 719.89 kg/m3
323.15 K, 11010 kPa, x2 = 0.7021 | 742.04 kg/m3
323.15 K, 12010 kPa, x2 = 0.3229 | 715.05 kg/m3
323.15 K, 12010 kPa, x2 = 0.7021 | 742.93 kg/m3
